Like-named read-outs stand apart in the source and are kept apart here.
Assays:
[1] = target: particulate P(40) fraction (Methylococcus capsulatus, UniProt G1UBD1+Q603F1+Q607G3); assay: hydroxylation of n-alkanes to secondary alcohols by particulate P(40) fraction (Table XVII); type: biochemical, Methylococcus capsulatus (Texas, ATCC 19,069)
Excerpt: (§1) Both cell suspensions (particulate fraction) and cell-free particulate fraction of methane-grown methylotroph microorganisms are capable of catalyzing the conversion of C3 -C6 n-alkanes to the corresponding alcohols including secondary alcohols. The conditions for preparing the cell suspensions or the cell-free particulate fractions from methane-grown methylotroph microorganisms is the same as described above. The cell-free particulate fraction requires the presence of oxygen and NADH as an electron donor. […] Tables XVI and XVII show the conversion of C3 -C6 n-alkanes to the corresponding secondary alcohols using cell suspensions and cell-free particulate fractions, respectively, of methane-grown methylotroph microorganisms.
(§2) ^(a) Particulate P(40) fraction was prepared as follows:
(§3) Cellsuspensions at 4° C. were disintegrated through a French
(§4) Pressure cell and centrifuged at 4000 × g. for 15 min. to remove
(§5) unbroken bacteria. The supernatant solution was then centrifuged at 40,00
(§6) × g. for 30 min. at 4° C., yielding the particulate P(40) an
(§7) soluble S(40) fractions. The products were identified by gas
(§8) chromatography and cochromatography with authentic standard.

[2] = tested on: Methylosinus trichosporium OB3b NRRL B-11,196; assay: conversion of n-alkanes to oxidation products by cell suspensions (Table XVIII); type: cell-based; conditions: methane-grown cell suspension; pH 7.0
Experimental: (§12) ^(a) Cell-suspensions of methanegrown methylotroph microorganisms
(§13) indicated in 0.15 M phosphate buffer, pH 7.0 incubated in the alkanes as
(§14) indicated at 3° C. The oxidation products were determined by g.l.c

[3] = tested on: particulate P(40) fraction; assay: hydroxylation of n-alkanes to secondary alcohols by particulate P(40) fraction (Table XVII); type: biochemical, Methylobacterium sp. (CRL-26, NRRL-B-11,222)
Excerpt: as §1, §2, §3, §4, §5, §6, §7, §8

[4] = target: particulate P(40) fraction (Methylosinus trichosporium, UniProt Q50541+Q9KX50+Q9KX51); assay: as above; type: biochemical, Methylosinus sp. (CRL-15, NRRL-B-11,202)
Excerpt: as §1, §2, §3, §4, §5, §6, §7, §8
Target sequence in this assay (Q9KX50 40-431): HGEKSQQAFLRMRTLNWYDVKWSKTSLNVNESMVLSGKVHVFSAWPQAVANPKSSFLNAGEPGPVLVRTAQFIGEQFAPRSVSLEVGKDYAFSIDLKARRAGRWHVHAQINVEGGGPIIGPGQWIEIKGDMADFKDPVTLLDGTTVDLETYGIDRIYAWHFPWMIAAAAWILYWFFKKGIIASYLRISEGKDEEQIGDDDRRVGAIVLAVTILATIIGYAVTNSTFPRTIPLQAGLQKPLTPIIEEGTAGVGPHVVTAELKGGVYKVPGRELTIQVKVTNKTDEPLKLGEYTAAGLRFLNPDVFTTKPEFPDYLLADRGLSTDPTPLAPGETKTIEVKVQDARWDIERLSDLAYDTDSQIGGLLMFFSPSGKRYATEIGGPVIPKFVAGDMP
Target sequence in this assay (Q50541 1-252): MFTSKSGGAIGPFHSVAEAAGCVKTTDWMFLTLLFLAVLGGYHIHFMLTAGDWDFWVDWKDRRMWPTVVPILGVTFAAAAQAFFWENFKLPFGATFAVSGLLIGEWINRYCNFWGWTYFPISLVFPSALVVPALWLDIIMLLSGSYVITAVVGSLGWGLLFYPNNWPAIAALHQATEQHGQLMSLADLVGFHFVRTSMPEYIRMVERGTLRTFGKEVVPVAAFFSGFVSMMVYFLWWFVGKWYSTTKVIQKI
Target sequence in this assay (Q9KX51 1-256): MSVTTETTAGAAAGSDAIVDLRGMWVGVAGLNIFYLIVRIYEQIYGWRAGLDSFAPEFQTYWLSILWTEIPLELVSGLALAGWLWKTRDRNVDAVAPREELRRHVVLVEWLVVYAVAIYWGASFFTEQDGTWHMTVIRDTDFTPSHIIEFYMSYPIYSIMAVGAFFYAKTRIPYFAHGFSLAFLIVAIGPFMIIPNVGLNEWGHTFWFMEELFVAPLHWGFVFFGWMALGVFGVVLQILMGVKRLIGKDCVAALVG

[5] = target: particulate P(40) fraction (Methylosinus trichosporium, UniProt Q50541+Q9KX50+Q9KX51); assay: as above; type: biochemical, Methylosinus trichosporium (OB3b, NRRL-B-11,196)
Excerpt: as §1, §2, §3, §4, §5, §6, §7, §8
Target sequence in this assay (Q50541 1-252): as the sequence (Q50541 1-252) above
Target sequence in this assay (Q9KX50 40-431): as the sequence (Q9KX50 40-431) above
Target sequence in this assay (Q9KX51 1-256): as the sequence (Q9KX51 1-256) above

[6] = tested on: Methylobacter capsulatus (Y, NRRL-B-11,201); assay: n-alkanes to secondary alcohols by cell suspensions (Table XVI); type: cell-based; conditions: Growth Substrate Methane
Excerpt: as §1
(§9) ^(a) The product secondary alcohols were identified and estimated by […]

[7] = tested on: Methylomonas sp. (CRL-17, NRRL-B-11,209); assay: as above; type: cell-based; conditions: Growth Substrate Methane
Excerpt: as §1, §9

[8] = tested on: Methylosinus trichosporium (OB3b, NRRL-B-11,196); assay: as above; type: cell-based; conditions: Growth Substrate Methane
Excerpt: as §1, §9

[9] = tested on: Methylobacterium sp. (CRL-26, NRRL-B-11,208); assay: as above; type: cell-based; conditions: Growth Substrate Methane
Excerpt: as §1, §9

[10] = tested on: Methylosinus sp. (CRL-15, NRRL-B-11,202); assay: as above; type: cell-based; conditions: Growth Substrate Methane
Excerpt: as §1, §9

[11] = tested on: Methylococcus capsulatus (Texas, ATCC 19,069); assay: as above; type: cell-based; conditions: Growth Substrate Methane
Excerpt: as §1, §9

[12] = tested on: Methylobacterium organophilum XX; assay: n-alkanes to methyl ketones by resting cell suspensions (Table I); type: cell-based; conditions: cells grown on methane; 30° C.
Experimental: (§10) The pH of the nutrient medium was adjusted to 7.0 by the addition of acid or base and 50 ml. samples of the nutrient medium were charged into a plurality of 300 ml. shaker flasks. […] The isolates had been maintained on methanol (0.4% V/V) agar plates or on agar plates under an atmosphere of methane and air having a 1:1 V/V gas ratio which had been transferred every two weeks. For growth on methanol, the medium was supplemented with 0.4% methanol. For growth on methane, the gaseous phase of the inoculated flasks was replaced with a gas mixture comprised of methane and air having a ratio of 1:1 on a V/V basis. The inoculated flasks were sealed air-tight and were incubated on a rotary shaker of orbital radius 2.5 cm. at 250 rpm and at 30° C. for two days until turbidity in the medium had developed. The cells were harvested by centrifugation at 10,000×g. at 4° C. for 30 minutes. The cell pellet was washed twice with a 0.05 M phosphate buffer at a pH of 7.0 (containing 0.02 M MgCl2). The washed cells were then suspended in a 0.05 M phosphate buffer at pH 7.0.
(§11) A 0.5 ml. sample of each washed cell suspension (2 mg. cells) was put into 10 ml. vials at 4° C. which were sealed with a rubber cap. The gaseous phase of the vials was removed with vacuum and then was replaced with a gas mixture of the substrate reactant (i.e., alkane or secondary alcohol) and oxygen at a 1:1 V/V ratio. (In the case of a liquid substrate, i.e., secondary alcohol, 10 μl of the substrate was put in the 10 ml. vials). The vials were then incubated at 30° C. on a rotary shaker at 300 rpm. Samples of product (1-3 μl) were withdrawn periodically with a microsyringe and the products were analyzed by gas chromatography (ionization flame detector column).

[13] = tested on: Methylomonas albus BG8 (NRRL B-11,200); assay: as above; type: cell-based; conditions: cells grown on methane; 30° C.
Experimental: as §10, §11

[14] = tested on: Methylocystis parvus OBBP (NRRL B-11,198); assay: as above; type: cell-based; conditions: cells grown on methane; 30° C.
Experimental: as §10, §11

[15] = tested on: Methylomonas methanica SI (NRRL B-11,199); assay: as above; type: cell-based; conditions: cells grown on methane; 30° C.
Experimental: as §10, §11

[16] = tested on: Methylococcus capsulatus Texas (ATCC 19069); assay: as above; type: cell-based; conditions: cells grown on methane; 30° C.
Experimental: as §10, §11

[17] = tested on: Methylosinus trichosporium OB3b (NRRL B-11,196); assay: as above; type: cell-based; conditions: cells grown on methane; 30° C.
Experimental: as §10, §11

[18] = tested on: Methylosinus sporium 5 (NRRL B-11,197); assay: as above; type: cell-based; conditions: cells grown on methane; 30° C.
Experimental: as §10, §11

[19] = tested on: Methylobacter capsulatus Y (NRRL B-11,201); assay: as above; type: cell-based; conditions: cells grown on methane; 30° C.
Experimental: as §10, §11

[20] = tested on: Methylococcus capsulatus CRL M1 NRRL B-11,219; assay: conversion of n-alkanes to oxidation products by cell suspensions (Table XVIII); type: cell-based; conditions: methane-grown cell suspension; pH 7.0
Experimental: as §12, §13, §14

Chain of particulate P(40) fraction (Methylococcus capsulatus, UniProt G1UBD1+Q603F1+Q607G3) (Q607G3 whole entry): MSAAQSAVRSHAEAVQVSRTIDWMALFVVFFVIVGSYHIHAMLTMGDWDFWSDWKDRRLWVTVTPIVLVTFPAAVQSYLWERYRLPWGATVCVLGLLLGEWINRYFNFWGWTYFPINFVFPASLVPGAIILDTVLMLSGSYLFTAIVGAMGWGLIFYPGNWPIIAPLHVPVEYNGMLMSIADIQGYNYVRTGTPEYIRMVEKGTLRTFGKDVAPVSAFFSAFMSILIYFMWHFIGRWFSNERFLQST
Chain of particulate P(40) fraction (Methylococcus capsulatus, UniProt G1UBD1+Q603F1+Q607G3) (G1UBD1 33-414): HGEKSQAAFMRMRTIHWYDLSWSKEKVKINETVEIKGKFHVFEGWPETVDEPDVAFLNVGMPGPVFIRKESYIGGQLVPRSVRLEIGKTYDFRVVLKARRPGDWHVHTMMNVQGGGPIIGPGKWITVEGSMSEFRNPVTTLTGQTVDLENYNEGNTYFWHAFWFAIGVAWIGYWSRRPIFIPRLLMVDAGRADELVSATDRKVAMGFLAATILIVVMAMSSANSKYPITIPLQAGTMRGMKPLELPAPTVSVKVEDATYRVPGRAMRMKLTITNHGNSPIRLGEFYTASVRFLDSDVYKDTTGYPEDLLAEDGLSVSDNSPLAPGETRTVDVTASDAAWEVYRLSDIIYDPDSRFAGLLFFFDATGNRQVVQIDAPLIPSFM
Chain of particulate P(40) fraction (Methylococcus capsulatus, UniProt G1UBD1+Q603F1+Q607G3) (Q603F1 1-260): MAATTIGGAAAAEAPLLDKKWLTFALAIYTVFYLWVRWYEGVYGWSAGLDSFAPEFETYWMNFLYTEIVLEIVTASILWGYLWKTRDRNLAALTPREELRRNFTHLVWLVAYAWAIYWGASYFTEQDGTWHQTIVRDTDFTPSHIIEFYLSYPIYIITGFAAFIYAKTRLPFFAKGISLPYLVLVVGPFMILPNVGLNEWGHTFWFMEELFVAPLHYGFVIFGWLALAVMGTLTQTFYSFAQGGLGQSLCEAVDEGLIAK

SMILES | Conversion Rate, n-alkane to corresponding secondary alcohol [1] | Conversion Rate, n-alkane to corresponding secondary alcohol [3] | Conversion Rate, n-alkane to corresponding secondary alcohol [4] | Conversion Rate, n-alkane to corresponding secondary alcohol [5] | Conversion Rate, n-alkane to corresponding secondary alcohol [6] [μmoles/hr/^5 mg. protein] | Conversion Rate, n-alkane to corresponding secondary alcohol [7] [μmoles/hr/^5 mg. protein] | Conversion Rate, n-alkane to corresponding secondary alcohol [8] [μmoles/hr/^5 mg. protein] | Conversion Rate, n-alkane to corresponding secondary alcohol [9] [μmoles/hr/^5 mg. protein] | Conversion Rate, n-alkane to corresponding secondary alcohol [10] [μmoles/hr/^5 mg. protein] | Conversion Rate, n-alkane to corresponding secondary alcohol [11] [μmoles/hr/^5 mg. protein] | Conversion Rates, n-alkane to corresponding methyl ketone [12] [μmoles/hr/mg protein] | Conversion Rates, n-alkane to corresponding methyl ketone [13] [μmoles/hr/mg protein] | Conversion Rates, n-alkane to corresponding methyl ketone [14] [μmoles/hr/mg protein] | Conversion Rates, n-alkane to corresponding methyl ketone [15] [μmoles/hr/mg protein] | Conversion Rates, n-alkane to corresponding methyl ketone [16] [μmoles/hr/mg protein] | Conversion Rates, n-alkane to corresponding methyl ketone [17] [μmoles/hr/mg protein] | Conversion Rates, n-alkane to corresponding methyl ketone [18] [μmoles/hr/mg protein] | Conversion Rates, n-alkane to corresponding methyl ketone [19] [μmoles/hr/mg protein] | also measured
CCCC [n-Butane, n-butane] | 0.92 μmoles/hr/2.0mg. of protein | 0.61 μmoles/hr/2.0mg. of protein | 0.89 μmoles/hr/2.0mg. of protein | 0.79 μmoles/hr/2.0mg. of protein | 0.09 | 1.2 | 1.5 | 0.80 | 1.2 | 1.0 | 2.0 | 0.60 | 1.0 | 0.30 | 0.52 | 1.2 | 0.58 | 1.1 | Conversion Rate, product 1-Butanol [2]: 0.3 μmoles/hr./mg./protein; Conversion Rate, product 2-Butanol [2]: 0.4 μmoles/hr./mg./protein; Conversion Rate, product 2-Butanone [2]: 0.1 μmoles/hr./mg./protein; Conversion Rate, product n-butanol [2]: 0.1 μmoles/hr./mg./protein; Conversion Rate, product 1-Butanol [20]: 0.4 μmoles/hr./mg./protein; Conversion Rate, product 2-Butanol [20]: 0.5 μmoles/hr./mg./protein; Conversion Rate, product 2-Butanone [20]: 0.2 μmoles/hr./mg./protein; Conversion Rate, product n-butanol [20]: 0.2 μmoles/hr./mg./protein
CCC [n-Propane, n-propane] | 1.2 μmoles/hr/2.0mg. of protein | 1.0 μmoles/hr/2.0mg. of protein | 1.5 μmoles/hr/2.0mg. of protein | 1.32 μmoles/hr/2.0mg. of protein | 0.20 | 1.6 | 2.5 | 1.4 | 2.1 | 1.1 | 2.8 | 2.7 | 1.8 | 2.5 | 1.2 | 1.5 | 2.1 | 1.6 | Conversion Rate, product 1-Propanol [2]: 0.4 μmoles/hr./mg./protein; Conversion Rate, product 2-Propanol [2]: 0.6 μmoles/hr./mg./protein; Conversion Rate, product Acetone [2]: 0.2 μmoles/hr./mg./protein; Conversion Rate, product Propanol [2]: 0.1 μmoles/hr./mg./protein; Conversion Rate, product 1-Propanol [20]: 0.5 μmoles/hr./mg./protein; Conversion Rate, product 2-Propanol [20]: 0.7 μmoles/hr./mg./protein; Conversion Rate, product Acetone [20]: 0.3 μmoles/hr./mg./protein; Conversion Rate, product Propanol [20]: 0.2 μmoles/hr./mg./protein

Source: patent US4250259A, “Microbiological production of ketones from C3 -C6 secondary alcohols” (priority 1979, dated 1981)
